Data as given in ChEMBL document CHEMBL5303304, “EUbOPEN Chemogenomics Library - IncuCyte” (2023).
Values joined by “and” are separate entries in the source; they are usually repeats but may differ in a detail not shown here. Equal values may be shown once.

How the values were obtained:
Type in all cases: toxicity, cell-based
HEK-293T = assay: Incucyte cell viability with HEK293T; details: human, 10 µM, compound concentration 10 uM
Fibroblast = assay: Incucyte cell viability with human fibroblast; details: 10 µM, compound concentration 10 uM
U2OS = assay: Incucyte cell viability with U2OS; details: human, 10 µM, compound concentration 10 uM
Also: unitless GR value; below 1 slowed growth and below 0 cell loss.

| SMILES | Growth Rate (HEK-293T; 0 h, replicate number 1) | Growth Rate (HEK-293T; 0 h, replicate number 2) | Growth Rate (HEK-293T; 6 h, replicate number 2) | Growth Rate (HEK-293T; 12 h, replicate number 2) | Growth Rate (HEK-293T; 24 h, replicate number 1) | Growth Rate (HEK-293T; 24 h, replicate number 2) | Growth Rate (Fibroblast; 6 h, replicate number 1) | Growth Rate (Fibroblast; 6 h, replicate number 2) | Growth Rate (Fibroblast; 18 h, replicate number 2) | Growth Rate (Fibroblast; 24 h, replicate number 1) | Growth Rate (U2OS; 0 h, replicate number 1) | Growth Rate (U2OS; 6 h, replicate number 1) | Growth Rate (U2OS; 12 h, replicate number 2) | Growth Rate (U2OS; 24 h, replicate number 1) | Growth Rate (HEK-293T; 6 h, replicate number 1) | Growth Rate (HEK-293T; 12 h, replicate number 1) | Growth Rate (Fibroblast; 0 h, replicate number 2) | Growth Rate (Fibroblast; 12 h, replicate number 2) | Growth Rate (U2OS; 0 h, replicate number 2) | Growth Rate (U2OS; 6 h, replicate number 2) | also measured |
| --- | --- | --- | --- | --- | --- | --- | --- | --- | --- | --- | --- | --- | --- | --- | --- | --- | --- | --- | --- | --- | --- |
| O=C(N[C@H]1CCCCC/C=C\C2C[C@@]2(C(=O)O)NC(=O)[C@@H]2C[C@@H](Oc3ccncc3)CN2C1=O)OC1CCCC1 (stereo not given in full) [BI 1675] | -0.15 | -0.95 | 0.64 | 0.89 | 0.94 | 0.89 | 0.23 | 0.39 | 0.91 | 0.99 | 0.43 | 0.77 | 0.99 | 0.89 | – | – | – | – | – | – | Growth Rate (Fibroblast; 12 h, replicate number 1): 0.84; Growth Rate (U2OS; 12 h, replicate number 1): 0.68; Growth Rate (U2OS; 18 h, replicate number 1): 0.77 |
| CCOCCn1cc(C(=O)Nc2ccc(-n3nc(-c4cccnc4)cc3C(F)(F)F)cn2)ccc1=O [BI 1935] | – | – | -0.06 | 0.27 | 0.48 | 0.51 | – | 0.1 | – | 0.78 | – | 0.75 | 0.89 | 0.66 | 0.1 | 0.36 | -0.02 | 0.65 | – | – | Growth Rate (HEK-293T; 18 h, replicate number 1): 0.41; Growth Rate (HEK-293T; 18 h, replicate number 2): 0.43; Growth Rate (Fibroblast; 12 h, replicate number 1): 0.59; Growth Rate (Fibroblast; 18 h, replicate number 1): 0.83; Growth Rate (U2OS; 12 h, replicate number 1): 0.52; Growth Rate (U2OS; 18 h, replicate number 1): 0.7 |
| O=C(Nc1ccc(-n2nc(-c3cccnc3)cc2C(F)(F)F)cn1)c1ccc(-c2ccccc2)c(F)c1 [BI 2049] | -0.8 | 0.47 | – | – | – | – | – | – | 0.98 | 0.99 | – | 0.83 | 0.84 | – | – | – | – | 0.85 | -0.06 | 0.46 | Growth Rate (Fibroblast; 24 h, replicate number 2): 0.91; Growth Rate (U2OS; 18 h, replicate number 2): 0.93; Growth Rate (U2OS; 24 h, replicate number 2): 0.97 |
| CC(C)(C#Cc1ccc(NC(=O)COc2ccccc2C(=O)c2ccccc2)c(Cl)c1)C(=O)O [BI 2439] | – | – | 0.41 | 0.42 | 0.79 | 0.69 | 0.59 | – | – | 0.89 | – | 1 | 0.68 | – | 0.72 | 0.81 | -0.64 | 0.66 | -0.27 | 0.76 | Growth Rate (HEK-293T; 18 h, replicate number 1): 0.78; Growth Rate (HEK-293T; 18 h, replicate number 2): 0.62; Growth Rate (Fibroblast; 18 h, replicate number 1): 0.92; Growth Rate (U2OS; 18 h, replicate number 2): 0.81; Growth Rate (U2OS; 24 h, replicate number 2): 0.76 |
| Cc1c(NC(=O)COc2ccc(Cl)cc2C(=O)c2cc(F)cc(C(F)(F)F)c2)ccc(C(=O)O)c1F [BI 2540] | 0.45 | 0.89 and 0.62 | 0.58 | 0.77 | 0.91 | 0.78 | 0.41 | 0.6 | 0.78 | 0.87 and 0.99 | 0.29 | 0.84 | – | 0.89 and 0.98 | 0.71 | – | -0.2 | 0.54 | 0.41 | -0.88 | Growth Rate (HEK-293T; 18 h, replicate number 1): 0.97; Growth Rate (HEK-293T; 18 h, replicate number 2): 0.75; Growth Rate (Fibroblast; 12 h, replicate number 1): 0.77; Growth Rate (Fibroblast; 18 h, replicate number 1): 0.85; Growth Rate (Fibroblast; 24 h, replicate number 2): 0.97; Growth Rate (U2OS; 12 h, replicate number 1): 0.64; Growth Rate (U2OS; 18 h, replicate number 1): 0.91 |
| O=C(NC[C@@H]1[C@H]2CN(C(=O)OCc3cc(C(F)(F)F)cc(C(F)(F)F)c3)C[C@@H]12)c1ccc2[nH]nnc2c1 [BI 2545] | – | – | -0.7 | 0.56 | 0.76 | 0.91 | 0.33 | -0.08 | – | – | – | 0.88 | -0.13 | – | -0.09 | 0.5 | -0.7 | 0.94 | -0.98 | -0.56 | Growth Rate (HEK-293T; 18 h, replicate number 1): 0.6; Growth Rate (HEK-293T; 18 h, replicate number 2): 0.94; Growth Rate (U2OS; 18 h, replicate number 2): 0.23; Growth Rate (U2OS; 24 h, replicate number 2): 0.42 |
| Cc1nccc(COC(=O)N2C[C@@H]3[C@@H](CNC(=O)c4ccc5[nH]nnc5c4)[C@@H]3C2)n1 [BI 3017] | 0.2 | 0.4 | – | – | – | 0.99 | – | – | 0.73 | – | 0.85 | 0.95 | 0.99 | 0.86 | 0.95 | – | – | – | – | – | Growth Rate (Fibroblast; 18 h, replicate number 1): 0.93; Growth Rate (Fibroblast; 24 h, replicate number 2): 0.95 |
| CCOC(=O)c1cc2cc(-c3cc(C(=O)NCc4ccc(C(=O)O)cc4)nn3C)ccc2[nH]1 [BI 4394] | 0.13 | 0.34 | – | – | – | – | – | 0.71 | 0.7 | – | 0.89 | 0.74 | 0.96 | 0.96 | 0.88 | 0.98 | – | 0.54 | – | – | Growth Rate (HEK-293T; 18 h, replicate number 1): 0.93; Growth Rate (Fibroblast; 24 h, replicate number 2): 0.86; Growth Rate (U2OS; 18 h, replicate number 2): 0.99 |
| Cn1nc(C(=O)NCc2ccc(C(=O)O)cc2)cc1-c1ccc2[nH]ccc2c1 [BI 4395] | -0.1 | 0.58 | 0.57 | 0.63 | – | 0.56 | – | – | – | – | – | 0.66 | 0.96 | – | – | – | -0.67 | – | 0.14 | 0.99 | Growth Rate (HEK-293T; 18 h, replicate number 2): 0.85; Growth Rate (U2OS; 24 h, replicate number 2): 0.9 |
| Cn1c(C2(NC(=O)c3ccc(NCC4CCCCC4)nc3)CCC2)nc2ccc(/C=C/C(=O)O)cc21 [BI 7656] | – | -0.78 | – | – | – | – | – | -0.44 | – | 0.94 | 0.79 | 0.81 | – | 0.92 | 0.41 | 0.81 | – | 0.82 | 0.24 | – | Growth Rate (Fibroblast; 24 h, replicate number 2): 0.72; Growth Rate (U2OS; 12 h, replicate number 1): 0.92; Growth Rate (U2OS; 24 h, replicate number 2): 0.93 |
| CS(=O)(=O)NCC[C@H](NC(=O)c1cncc2c1cnn2-c1ccc(F)cc1)c1ccnc(S(C)(=O)=O)c1 [BI 9307] | -0.12 | 0.23 | – | – | 1 | – | 0.89 | – | – | – | – | 0.83 | 0.91 | – | – | – | -0.94 | – | – | 0.9 | Growth Rate (Fibroblast; 0 h, replicate number 1): -0.98; Growth Rate (Fibroblast; 12 h, replicate number 1): 0.91 |
